PubChem BioAssay (NCI)
Where “and” joins values, the source holds several entries; their conditions need not be identical. Equal values may be shown once.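 Cultured in 96-well plates, cells were exposed to test compound for 48 hours across five concentrations. GI50: concentration for 50% inhibition of growth. TGI is the concentration that stops growth completely.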

Assays:
Experiment in all cases: DTP human tumour cell line panel, 48 h
[1] = test system: A549 NSCLC
[2] = test system: DU-145 prostate
[3] = test system: HS 578T breast
[4] = test system: NCI-H460 lung
[5] = test system: NCI/ADR-RES ovarian
[6] = test system: PC-3 prostate
[7] = test system: T-47D breast
[8] = test system: TK-10 renal
[9] = test system: U251 CNS
[10] = test system: UO-31 renal

| Structure (SMILES) | GI50 [1] | TGI [1] | GI50 [2] | TGI [2] | GI50 [3] | TGI [3] | GI50 [4] | TGI [4] | GI50 [5] | TGI [5] | GI50 [6] | TGI [6] | GI50 [7] | TGI [7] | GI50 [8] | TGI [8] | GI50 [9] | TGI [9] | GI50 [10] | TGI [10] |
| --- | --- | --- | --- | --- | --- | --- | --- | --- | --- | --- | --- | --- | --- | --- | --- | --- | --- | --- | --- | --- |
| CCOC(=O)c1sc2nc(=S)[nH]c(NC(N)=S)c2c1C | 31.2 µM | 90.7 µM | 15.4 µM | 39.4 µM | 26 µM | 59.7 µM | 23.2 µM | 61 µM | 12.7 µM | 29.9 µM | 22.7 µM | 94.6 µM | 11.3 µM | 37 µM | 95.5 µM | > 100 µM | 17.2 µM | 36.8 µM | 20.3 µM | 61.7 µM |
| CC1=NC2(C(=O)O)C3(C(=O)O)N=C(C)OC3(C(F)(F)F)C2(C(F)(F)F)O1 (stereo not drawn) |  | > 100 µM |  |  |  |  |  | > 100 µM |  |  |  |  |  |  |  | > 100 µM |  | > 100 µM |  | > 100 µM |
| CC(C)Cn1cnc2c(N)nc3ccccc3c21 | 39.3 µM | > 100 µM | 47.2 µM | > 100 µM | 60.8 µM | > 100 µM | 23.1 µM | > 100 µM | 49 µM | > 100 µM | 34.7 µM | > 100 µM | 41.6 µM | > 100 µM | 94.8 µM | > 100 µM | 47.5 µM | > 100 µM | 35.8 µM | > 100 µM |
| CCOc1ccc2c(c1)[n+]([O-])c(-c1ccccc1)c(N)[n+]2[O-] |  | > 100 µM |  |  |  |  |  | > 100 µM |  |  |  |  |  |  |  | > 100 µM |  | > 100 µM |  | > 100 µM |
| O=S(=O)(c1ccccc1)N1CCC1c1ccccc1 (stereo not drawn) |  | > 100 µM |  |  |  |  |  | > 100 µM |  |  |  |  |  |  |  | > 100 µM |  | > 100 µM |  | > 100 µM |
| Cc1cc[c]([Sb]2[O]C(CO)C(C(O)C(O)C(=O)O)[O]2)cc1 (stereo not drawn) | 35.3 µM | > 100 µM | 38.5 µM | > 100 µM | 87.7 µM | > 100 µM |  |  | > 100 µM | > 100 µM | 57.7 µM | > 100 µM | > 100 µM | > 100 µM |  | 0.58 µM | 29.1 µM | > 100 µM | > 100 µM | > 100 µM |
| O=C1c2ccccc2C(=O)N1C/C=N/NS(=O)(=O)c1cccc([N+](=O)[O-])c1 |  | > 100 µM |  |  |  |  |  | > 100 µM |  |  |  |  |  |  |  | > 100 µM |  | > 100 µM |  | > 100 µM |
| O=c1cc(-c2cccc(Cl)c2)[nH]c2cc3c(cc12)OCO3 | 0.829 µM | 75 µM and 18.1 µM |  | 0.863 µM |  | 1.74 µM |  | > 100 µM |  |  |  | > 100 µM |  | 65.3 µM |  | 39.3 µM and 22.4 µM |  | 10.3 µM | 0.743 µM | 75 µM and > 100 µM |
| [O-]c1ccccc1C=NCCN=Cc1ccccc1[O-].[O]=[U+2]=[O] | 43.1 µM | > 100 µM |  |  |  |  | 19.6 µM | 43.7 µM |  |  |  |  |  |  | 26.3 µM | 53.1 µM | 19.3 µM | 39.1 µM | 29.8 µM | > 60.6 µM |
| CCN(CC)CC(C(=O)Nc1c(C)cccc1C)/C(C)=N\NC(=S)NN (stereo not drawn) |  | > 100 µM |  |  |  |  |  | > 100 µM |  |  |  |  |  |  |  | > 100 µM |  | > 100 µM |  | > 100 µM |
